The target in the experiment is T1, HPK1 (Homo sapiens, UniProt Q92918).
T1 construct: A HiBiT tag was introduced by CRISPR on the N terminus of HPK1 in Jurkat cells; host or cells: Jurkat cells (ATCC TIB-152), monoclonal line with CRISPR knock-in of HiBiT at the endogenous HPK1 locus
As to the kind of experiment: HPK1 Cellular HiBit Degradation Assay. Format: cell-based. The following applies: HiBiT HPK1 Jurkat cells, 24 hrs; for DC50: concentration at which 50% of HPK1 was remaining, read-out: DC50 Category; for Dmax: Jurkat, maximum degradation vs DMSO vehicle control, read-out: Dmax Category. As to the method: HPK1 Cellular HiBit Degradation Assay
A HiBiT tag was introduced by CRISPR on the N terminus of HPK1 in Jurkat cells (ATCC® TIB-152) to allow quantitation of HPK1 protein levels in a monoclonal human cell line. Cells were plated at 1×10^6 cells/mL, 30 uL/well (3×10^4 cells/well) in complete RPMI 1640 (10% heat inactivated FBS, 1% L-glutamine) in 384-well assay plates (Corning, cat. no. 3570). HPK1 chimeric targeting molecules (CTMs) were added in an 11 point dilution series (11-point, 3.16-fold) with a final assay concentration range of 10 uM to 0.1 nM. The parental Jurkat cell line, with no HiBiT insertion, was included in the assay as a background control. Cell treated with a DMSO vehicle control was used to determine the maximum signal defining 100% HPK1 in the cell. Cells were incubated for 24 hrs at 37° C./5% CO2. Following incubation, 30 uL of complete Nano-Glo HiBiT Lytic Detection Reagent (Promega cat. no. N3040) was added. Cells were incubated for 10 min at room temperature and luminescence was read on an EnVision plate reader (Perkin Elmer, 0.1 sec per well). Viability was assessed in the same plate using Cell Titer Fluor (Promega) and read on an EnVision plate reader to ensure results were not the effect of cytotoxicity. Percent HPK1 remaining per sample was calculated as follows:
[formula] % HPK1 remaining values were plotted as a function of compound concentration and curves were fit using the Prism (GraphPad) equation “log(inhibitor) vs response−Variable slope (four parameters)”. Dmax values were calculated by identifying the lowest % remaining and subtracting from 100. DC50 values were determined by extrapolating from the curve the concentration at which 50% of HPK1 was remaining based on the DMSO control.
HiBiT HPK1 Jurkat cell lines were used to evaluate the total protein levels of HPK1 in a robust human cellular high throughput format. The level of HPK1 remaining following treatment with HPK1 CTMs is reported as Dmax (maximum degradation) achieved at 24 hours when compared to vehicle treated controls. […] These decreases were not a result of cytotoxicity measured by a viability assessment.

Structures are written as SMILES.

T1 sequence (Q92918 whole entry): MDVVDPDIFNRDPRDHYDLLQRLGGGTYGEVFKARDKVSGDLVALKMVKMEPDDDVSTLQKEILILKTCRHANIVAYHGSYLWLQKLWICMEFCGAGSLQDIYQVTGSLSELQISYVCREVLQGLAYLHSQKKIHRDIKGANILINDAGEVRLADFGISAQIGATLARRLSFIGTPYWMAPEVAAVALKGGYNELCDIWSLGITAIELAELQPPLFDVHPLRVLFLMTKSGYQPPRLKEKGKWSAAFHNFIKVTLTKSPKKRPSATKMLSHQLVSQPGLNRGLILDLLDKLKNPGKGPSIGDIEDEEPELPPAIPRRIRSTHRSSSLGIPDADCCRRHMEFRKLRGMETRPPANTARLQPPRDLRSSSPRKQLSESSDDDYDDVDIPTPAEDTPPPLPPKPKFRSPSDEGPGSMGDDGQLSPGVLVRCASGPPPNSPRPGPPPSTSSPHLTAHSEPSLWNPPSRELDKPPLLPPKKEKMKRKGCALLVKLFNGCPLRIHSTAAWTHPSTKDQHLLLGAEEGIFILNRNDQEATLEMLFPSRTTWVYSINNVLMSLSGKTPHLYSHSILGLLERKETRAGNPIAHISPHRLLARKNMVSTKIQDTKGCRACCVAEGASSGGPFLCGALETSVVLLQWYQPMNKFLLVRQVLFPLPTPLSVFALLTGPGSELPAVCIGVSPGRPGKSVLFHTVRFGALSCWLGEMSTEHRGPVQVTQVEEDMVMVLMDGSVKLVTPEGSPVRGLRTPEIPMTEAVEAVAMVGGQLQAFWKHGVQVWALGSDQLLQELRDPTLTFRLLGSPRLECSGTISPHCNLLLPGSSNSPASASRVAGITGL

As usually defined, the DC50 is the concentration giving 50% degradation. A word on the Dmax: it is the greatest extent of degradation seen. As for `CC(C)n1cnc2cc(-c3ccc4c(c3)N([C@H]3C[C@@H](N5C6CCC5COC6)C3)C(=O)C43CCN(C(=O)C4(C)CCN(C(=O)CC5CCN(c6ccc(C7CCC(=O)NC7=O)cc6)CC5)CC4)CC3)nc(NC3CC3)c21` (mixture of isomers) [Example 202, (3RS)-3-[4-(4-{2-[4-({6-[4-(cyclopropylamino)-3-(propan-2-yl)-3H-imidazo[4,5-c]pyridin-6-yl]-2-oxo-1-[(1S,3S)-3-{3-oxa-8-azabicyclo[3.2.1]octan-8-yl}cyclobutyl]-1,2-dihydrospiro[indole-3,4′-piperidin]-1′-yl}carbonyl)-4-methylpiperidin-1-yl]-2-oxoethyl}piperidin-1-yl)phenyl]piperidine-2,6-dione], the DC50 is 500 to 1000 nM and the Dmax was in the range of 50 to 70%.
As for `CC(C)n1cnc2cc(-c3ccc4c(c3)N([C@H]3C[C@@H](N5CCCCC5)C3)C(=O)C43CCN(C(=O)C4CCN(C(=O)[C@H]5CC[C@H](Nc6cccc7c6C(=O)N(C6CCC(=O)NC6=O)C7=O)CC5)CC4)CC3)nc(NC3CC3)c21` (mixture of isomers) [Example 56, 2-[(3RS)-2,6-dioxopiperidin-3-yl]-4-{[(1R,4R)-4-[4-({6-[4-(cyclopropylamino)-3-(propan-2-yl)-3H-imidazo[4,5-c]pyridin-6-yl]-2-oxo-1-[(1S,3S)-3-(piperidin-1-yl)cyclobutyl]-1,2-dihydrospiro[indole-3,4′-piperidin]-1′-yl}carbonyl)piperidine-1-carbonyl]cyclohexyl]amino}-2,3-dihydro-1H-isoindole-1,3-dione], the DC50 lay within 500 to 1000 nM and the Dmax is 50 to 70%.
In the case of `CC(C)n1cnc2cc(-c3ccc4c(c3)N([C@H]3C[C@@H](N5CCC[C@H](F)C5)C3)C(=O)C43CCN(C(=O)C4(C)CCN(C(=O)C5CCN(c6ccc(C7CCC(=O)NC7=O)cn6)CC5)CC4)CC3)nc(NC3CC3)c21` (mixture of isomers) [Example 203, (3RS)-3-(6-{4-[4-({6-[4-(cyclopropylamino)-3-(propan-2-yl)-3H-imidazo[4,5-c]pyridin-6-yl]-2-oxo-1-[(1S,3S)-3-[(3S)-3-fluoropiperidin-1-yl]cyclobutyl]-1,2-dihydrospiro[indole-3,4′-piperidin]-1′-yl}carbonyl)-4-methylpiperidine-1-carbonyl]piperidin-1-yl}pyridin-3-yl)piperidine-2,6-dione], the DC50 was less than 100 nM and the Dmax is 70 to 85%.
With `CC(C)n1cnc2cc(-c3ccc4c(c3)N([C@H]3C[C@@H](N5CCCCC5)C3)C(=O)C43CCN(C(=O)[C@]4(C)CCN(C(=O)C5CCN(c6ccc(C7CCC(=O)NC7=O)cn6)CC5)C4)CC3)nc(NC3CC3)c21` (mixture of isomers) [Example 186, (3RS)-3-(6-{4-[(3R)-3-({6-[4-(cyclopropylamino)-3-(propan-2-yl)-3H-imidazo[4,5-c]pyridin-6-yl]-2-oxo-1-[(1S,3S)-3-(piperidin-1-yl)cyclobutyl]-1,2-dihydrospiro[indole-3,4′-piperidin]-1′-yl}carbonyl)-3-methylpyrrolidine-1-carbonyl]piperidin-1-yl}pyridin-3-yl)piperidine-2,6-dione], the 50% degradation concentration (DC50) was in the range of 100 to 500 nM and the Dmax fell in the range of 70 to 85%.
The like results for `CC(C)n1cnc2cc(-c3ccc4c(c3)N([C@H]3C[C@@H](N5CCCCC5)C3)C(=O)C43CCN(C(=O)C4(C)CCN(C(=O)C5CCN(c6ccc(C7CCC(=O)NC7=O)cc6)CC5)CC4)CC3)nc(Nc3ccccc3F)c21` (mixture of isomers) [Example 110, (3RS)-3-[4-(4-{4-[(6-{4-[(2-fluorophenyl)amino]-3-(propan-2-yl)-3H-imidazo[4,5-c]pyridin-6-yl}-2-oxo-1-[(1S,3S)-3-(piperidin-1-yl)cyclobutyl]-1,2-dihydrospiro[indole-3,4′-piperidin]-1′-yl)carbonyl]-4-methylpiperidine-1-carbonyl}piperidin-1-yl)phenyl]piperidine-2,6-dione] were, in that order, less than 100 nM and greater than 85%.
As to `CC(C)n1cnc2cc(-c3ccc4c(c3)N([C@H]3C[C@@H](N5CCCCC5)C3)C(=O)C43CCN(C(=O)C4CN(C(=O)C5CCN(c6ccc(C7CCC(=O)NC7=O)cn6)CC5)CC(C)(C)C4)CC3)nc(NC3CC3)c21` (mixture of isomers) [Example 250, (3RS)-3-(6-{4-[5-({6-[4-(cyclopropylamino)-3-(propan-2-yl)-3H-imidazo[4,5-c]pyridin-6-yl]-2-oxo-1-[(1S,3S)-3-(piperidin-1-yl)cyclobutyl]-1,2-dihydrospiro[indole-3,4′-piperidin]-1′-yl}carbonyl)-3,3-dimethylpiperidine-1-carbonyl]piperidin-1-yl}pyridin-3-yl)piperidine-2,6-dione], the DC50 was less than 100 nM and the Dmax was in the range of 70 to 85%.
In the case of `CC(C)n1cnc2cc(-c3ccc4c(c3)N([C@H]3C[C@@H](N5CCCCC5)C3)C(=O)C43CCN(C(=O)C4(C)CCN(C(=O)[C@H]5CC[C@H](Oc6ccc(C7CCC(=O)NC7=O)cc6)CC5)CC4)CC3)nc(Nc3ccccc3F)c21` (mixture of isomers) [Example 102, (3RS)-3-(4-{[(1R,4R)-4-{4-[(6-{4-[(2-fluorophenyl)amino]-3-isopropylimidazo[4,5-c]pyridin-6-yl}-2-oxo-1-[(1S,3S)-3-(piperidin-1-yl)cyclobutyl]spiro[indole-3,4′-piperidin]-1′-yl)carbonyl]-4-methylpiperidine-1-carbonyl}cyclohexyl]oxy}phenyl)piperidine-2,6-dione], the DC50 is less than 100 nM and the Dmax was greater than 85%.
Take `CC(C)n1cnc2cc(-c3ccc4c(c3)N([C@H]3C[C@@H](N5CCCCC5)C3)C(=O)C43CCN(C(=O)[C@H]4CCN(C(=O)C5CCN(c6ccc(C7CCC(=O)NC7=O)cn6)CC5)C4)CC3)nc(Nc3ccncc3F)c21` (mixture of isomers) [Example 34, (3RS)-3-(6-{4-[(3S)-3-[(6-{4-[(3-fluoropyridin-4-yl)amino]-3-(propan-2-yl)-3H-imidazo[4,5-c]pyridin-6-yl}-2-oxo-1-[(1S,3S)-3-(piperidin-1-yl)cyclobutyl]-1,2-dihydrospiro[indole-3,4′-piperidin]-1′-yl)carbonyl]pyrrolidine-1-carbonyl]piperidin-1-yl}pyridin-3-yl)piperidine-2,6-dione]: the DC50 was 100 to 500 nM and the greatest degradation seen (Dmax) lay in the range of 50 to 70%.
In the case of `CC(C)n1cnc2cc(-c3ccc4c(c3)N([C@H]3C[C@@H](N5CCCCC5)C3)C(=O)C43CCN(C(=O)C4(C)CCN(C(=O)CN5CCC(c6ccc(C7CCC(=O)NC7=O)cn6)CC5)CC4)CC3)nc(NC3CC3)c21` (mixture of isomers) [Example 224, (3RS)-3-[6-(1-{2-[4-({6-[4-(cyclopropylamino)-3-(propan-2-yl)-3H-imidazo[4,5-c]pyridin-6-yl]-2-oxo-1-[(1S,3S)-3-(piperidin-1-yl)cyclobutyl]-1,2-dihydrospiro[indole-3,4′-piperidin]-1′-yl}carbonyl)-4-methylpiperidin-1-yl]-2-oxoethyl}piperidin-4-yl)pyridin-3-yl]piperidine-2,6-dione], the DC50 lay within 100 to 500 nM and the Dmax lay in the range of 70 to 85%.
The like results for `CC(C)n1cnc2cc(-c3ccc4c(c3)N([C@H]3C[C@@H](N5CCCCC5)C3)C(=O)C43CCN(C(=O)C4CCN(C(=O)C5CCN(c6ncc(C7CCC(=O)NC7=O)cn6)CC5)CC4)CC3)nc(NC3CC3)c21` (mixture of isomers) [Example 89, (3RS)-3-(2-{4-[4-({6-[4-(cyclopropylamino)-3-(propan-2-yl)-3H-imidazo[4,5-c]pyridin-6-yl]-2-oxo-1-[(1S,3S)-3-(piperidin-1-yl)cyclobutyl]-1,2-dihydrospiro[indole-3,4′-piperidin]-1′-yl}carbonyl)piperidine-1-carbonyl]piperidin-1-yl}pyrimidin-5-yl)piperidine-2,6-dione] were, in that order, 100 to 500 nM and 50 to 70%.
The like results for `CC(C)n1cnc2cc(-c3ccc4c(c3)N([C@H]3C[C@@H](N5C6CCC5COC6)C3)C(=O)C43CCN(C(=O)C4(C)CCN(C(=O)CC5CCN(c6ccc(C7CCC(=O)NC7=O)cn6)CC5)CC4)CC3)nc(NC3CC3)c21` (mixture of isomers) [Example 222, (3RS)-3-[6-(4-{2-[4-({6-[4-(cyclopropylamino)-3-(propan-2-yl)-3H-imidazo[4,5-c]pyridin-6-yl]-2-oxo-1-[(1S,3S)-3-{3-oxa-8-Azabicyclo[3.2.1]octan-8-yl}cyclobutyl]-1,2-dihydrospiro[indole-3,4′-piperidin]-1′-yl}carbonyl)-4-methylpiperidin-1-yl]-2-oxoethyl}piperidin-1-yl)pyridin-3-yl]piperidine-2,6-dione] were, in that order, 100 to 500 nM and 50 to 70%.

For the origin of these results see patent US12091426B2, “Bifunctional degraders of hematopoietic progenitor kinase and therapeutic uses thereof” (Nurix Therapeutics, Inc., priority 2021, dated 2024).
